How the values were obtained:
[1] = tested on: human ovarian granulosa cells; settings: 50 μM for 3 days; cited from earlier work
3T3L1 preadipocytes = assay: Cell death and apoptosis of 3T3L1 preadipocytes (trypan blue, LDH, flow cytometry); assay type: cell-based, mouse; settings: 50 μM, vs control
Description: (§1) 50 μM of stearate, oleate or linoleate was used to treat 3T3L1 cells as this concentration is centered within the normal range for non-esterified stearate in the plasma of humans. Stearate, oleate, or linoleate was loaded onto fatty acid free BSA according to the method reported by Spector and Hoak (Spector and Hoak, 1969). Briefly, stearate (0.5 g) was dissolved in chloroform (100 mL) and mixed well with 10 g diatomaceous earth in a 1 liter flask. The mixture was stirred and dried under nitrogen until powder. Fatty acid free BSA (1 g) was dissolved in 100 mL with DMEM without phenol red and mixed with 3 g of the stearate/diatomaceous earth mixture and stirred for 30 minutes. The stearate/BSA solution was filtered through a 0.45 μm filter, and adjusted to pH 7.4. The concentration of stearate in the solution was detected by use of a NEFA C kit. Oleic and linoleate were loaded in the same way. […] Before the treatment with fatty acid, 3T3L1 preadipocytes were grown to 100%, and were starved in 2% FBS medium for 24 hours.
(§2) After treatment, 3T3L1 cells were harvested, washed with cold PBS, and then resuspended in 100 μl annexin-binding buffer (50 mM HEPES, 700 mM NaCl, 12.5 mM CaCl2, pH 7.4). Cell density was determined, and the cells were diluted to 10^6 cells. Then 5μL of Alex Fluo 488 annexin V and 1 μL propidium iodide (PI) were added. Cells were gently oscillated and incubated for 15 min at room temperature. After adding 400 μL of binding buffer to each tube, cells were kept on ice and analyzed by flow cytometry within 1 hour. Cells that stained positive for Alex Fluo 488 annexin V and negative for PI were considered to be apoptotic. Cells that stained positive for both Alex Fluo 488 annexin V and PI were considered either in the end stage of apoptosis, or necrosis. Cells that stained negative for both Alex Fluo 488 annexin V and PI were considered alive and not undergoing measurable apoptosis. A BD LSR II flow cytometer from Becton Dickinson was used in all flow experiments and the data were analyzed with BD FACSDiva™ software V.6.1.3.
(§3) Lactate dehydrogenase (LDH) release was measured using a cytotoxicity detection kit, according to the manufacture's protocol. After 3T3L1 cells were treated, 1 ml of cell culture medium was removed and centrifuged. The supernatant was retained for assaying. For determinations, 100 μl of LDH assay reagent was added to 100 μl of supernatant and incubated for 30 min at room temperature in the dark. Absorbance was measured at 490 nm. Background release from culture medium alone was subtracted before reporting. Maximum release was measured after adding 2% Triton X-100 to untreated cells.
(§4) After treatment, 3T3L1 cells were harvested and stained with 0.4% trypan blue solution. Cells in the four corners of the grid were counted under a conventional bright field binocular microscope.

MCF10A = settings: ref (27); cited from earlier work
Rho mRNA = assay: RT-PCR for RhoA, RhoB, RhoC in Hs578T cells; assay type: cell-based, human
Description: In total, 30-40% confluent Hs578T cells were treated with stearate (50 μM) for 48 hours after starvation for 24 hours. Total RNA was extracted and reverse-transcribed as described in RT-PCR for p21^CIP1/WAF1 and p27^[…]. The PCR assay was performed in a volume of 50 μl, containing 4μl DNA template, 45 μl Platinum PCR Supermix (Invitrogen) and 0.2 μM each specific primer. PCR specificity and efficiency were improved by using hot start PCR with 3 min pre-denaturation, at 95° C., and 30 cycles of denaturation (95° C., 30 s), annealing (52° C., 30 s) and 1 min extension (72° C.). The PCR products (20 INS>μl) were analyzed by means of 1% agarose in tris-acetate ethylenediaminetetraacetic acid gel electrophoresis and visualized by ethidium bromide staining under ultraviolet; digital images were analyzed by means of a FUJI Medical System (FUJIFILM) and the bands quantified by Quantity Software (FUJIFILM). […] was used to normalize the variable RNA loading in each sample. The calculated result represents the relative expression levels of target genes compared with its expression in the control group after the value of target genes was normalized to GAPDH expression levels.

[2] = tested on: differentiated 3T3L1 adipocytes; assay: Necrosis and apoptosis of differentiated 3T3L1 adipocytes (trypan blue, LDH, flow cytometry); assay type: cell-based, mouse; settings: 50 μM
Description: 3T3L1 mouse fibroblast cells (ATCC, CL-173™) were maintained according to the manufacture's protocol, in Dulbecco's modified eagle's medium (DMEM) containing 10% Fetal Bovine Serum and antibiotics (M1 medium). Adipocyte differentiation was performed according to standard procedures (42). Briefly, the 3T3L1 fibroblasts were seeded at 30% confluence and allowed to grow to near 100% confluence. On the day after reaching maximum confluence, conversion was induced by replacing the M1 medium with M1 medium containing insulin (5 μg/ml), dexamethasone (0.25 μM), and 3-isobutyl-1-methyl-xanthine (0.5 mM). After 2 days, the cells were changed to M1 medium with insulin (5 μg/ml) for an additional 2 days. Thereafter, the cells were maintained in M1 medium without additives for 2 days.
as §1, §2, §3, §4

CCCCCCCCCCCCCCCCCC(=O)O [stearate, Stearic acid]
Cell viability [1]: no decrease
Percentage of dead cells (trypan blue) (3T3L1 preadipocytes; 48 hour treatment): significantly increased
Dead cells (flow cytometry) (3T3L1 preadipocytes; 48 hours): increase
Cytotoxicity (lactate dehydrogenase) (3T3L1 preadipocytes; after 24 hours): significantly increased
Apoptotic cells (flow cytometry) (3T3L1 preadipocytes): significantly increased
Effect on MCF10A non-tumorigenic cell line (MCF10A): not affected
Rho mRNA expression (Rho mRNA; over 24 h): neither EGF nor stearate affected
RhoA mRNA expression (Rho mRNA; stearate 50 μM for 48 h): significantly decreased
RhoB mRNA expression (Rho mRNA; stearate 50 μM for 48 h): remained unchanged
RhoC mRNA expression (Rho mRNA; stearate 50 μM for 48 h): significantly decreased
Total Rho mRNA expression (Rho mRNA; stearate 50 μM for 48 h): significantly decreased
Cytotoxicity (lactate dehydrogenase in medium) [2]: no significant changes
Percentage of apoptotic cells (flow cytometry) [2]: no significant changes
Percentage of dead cells (flow cytometry) [2]: no significant changes
Percentage of dead cells (trypan blue) [2]: no significant changes
